Patent CN108159055A, “治疗乳腺癌的长效递药系统、其制备方法及应用” (XI'AN LIBANG MEDICINE SCIENCE AND TECHNOLOGY Co Ltd, priority 2018, dated 2018)

Assay: Miscibility of solvents with oils (Test Example 2 part 1, Table 2)
Assay type: physicochemical
Settings: no phospholipid

## CC(=O)OCC(COC(C)=O)OC(C)=O.CC(=O)OCC(COC(C)=O)OC(C)=O [三乙酸甘油酯]
With benzyl alcohol
  miscibility: 混溶
With benzyl benzoate
  miscibility: 混溶
With ethanol
  miscibility: 不混溶
With ethyl lactate
  miscibility: 不混溶
